Series [1] relates to whole chick DRGs. Briefly: DRG neurite extension bioactivity verification assay. The note with it: 20 ng/ml FK506 positive control; 72 hours culture. The format is cell-based. Here is the method: Fertilized chicken eggs (Merrills Poultry, ID, USA) were incubated at ˜39° C. under 100% relative humidity for 12 days. Dorsal root ganglions (DRG) were dissected from the embryos under a microscope. 24-well plates were coated with laminin (1 μg/ml), then 500 μL from each media sample was placed into 3 wells. DRGs were separated carefully from connective tissue for culturing and a single DRG was placed into each well. For comparison to known FK506 concentrations, DRGs were also grown in negative and positive control concentrations of FK506, 0 ng/ml and 20 ng/ml, respectively. Groups tested: 0 ng/ml FK506 (n=4), 20 ng/ml FK506 control (n=4), Day 4 collection of LD-Wrap (n=6), and Day 4 collection of HD-Wrap (n=8). amples were diluted in DMEM/F12+10% FBS and 1% Pen-Strep. HD-Wrap and LD-Wrap drug release test samples were diluted by a factor of 10 and 2, respectively. Drug release test samples average concentrations after dilution: Day 4 LD-Wrap—18.5 ng/ml FK506 and Day 4 HD-Wrap—23.1 ng/ml FK506. The plate was incubated for 72 hours at 37° C. and 5% CO2 to evaluate the released drug's bioactivity. […] Briefly, the area of the ganglion body (ADRG) and the total area of the DRG with the growing axons (Atot) were measured using ImageJ (ImageJ 1.31v, National Institutes of Health, Bethesda, USA). The average neurite length (lavg) was calculated by: lavg=(Atot/π)^1/2−(ADRG/π)^1/2. […]

The format of series [2] is physicochemical. Here is the method: The inventors discovered that FK506, in particular, is subject to thermal degradation beginning at about 140° C. when incorporated into the preferred polymers within the preferred loading ranges as disclosed herein. While conventional PLLA and PLLA co-polymer hot-melt extrusion protocols call for temperatures exceeding 140° C., limiting the maximum temperature still allows for sufficient manufacturability while minimizing or preventing unwanted thermal degradation of the FK506.

The structures appear in SMILES notation.

For `C=CC[C@@H]1/C=C(\C)C[C@H](C)C[C@H](OC)[C@H]2O[C@@](O)(C(=O)C(=O)N3CCCC[C@H]3C(=O)O[C@H](/C(C)=C/[C@@H]3CC[C@@H](O)[C@H](OC)C3)[C@H](C)[C@@H](O)CC1=O)[C@H](C)C[C@@H]2OC` [FK506], in series [1], the Average neurite extension is recorded as 720±72.2 μm. Besides, the “temperature at which thermal degradation begins” value in series [2] was “about 140 °C”.

Source of the values: patent US20250120920A1, “DRUG-DELIVERING NERVE WRAP” (UNIVERSITY OF UTAH RESEARCH FOUNDATION, priority 2019, published 2025).
